Measured values as given in patent publication US5034548A, “Steroid derivatives useful as hypocholesterolemics” (E. I. Du Pont de Nemours and Company, priority 1990, dated 1991).

Columns and labels:
[1] = test system: 3-Hydroxy-3-Methylglutaryl Coenzyme A Reductase (HMGR); test: HMGR Suppression Assay in digitonin-permeabilized CHO cells; assay type: cell-based, Chinese Hamster; settings: for IC50: 6 hr incubation at 37°, amount to suppress HMGR activity by 50% relative to controls; for effect on measured HMGR activity: tested under these same conditions
Protocol: The ability of the compounds of Formula I to suppress the activity of HMGR, the rate limiting enzyme of cholesterol biosynthesis, was tested as follows. Chinese Hamster Ovary (CHO) cells were divided twice weekly and were maintained in McCoy's 5A medium supplemented with 1% Cab-O-Sil delipidated Fetal Bovine Serum (FBS) (obtained from Gibco Laboratories, Chagrin Falls, Ohio). Cells were harvested during the logarithmic phase of growth and cell cultures were prepared by adding 0.5×10^6 cells to wash well in a 24 well cluster dish (obtained from Costar, Data Packaging Corp., Cambridge, Mass.) employing 1 mL of the above medium per each well. […] Control cells were treated in an identical fashion to those which received test compound, except they were incubated with the BSA and ethanol suspension only.
Specifically, the medium in each well was aspirated and the cells rinsed with a 50 mM solution of phosphate buffered saline (PBS). One mL of 30 μg/mL of digitonin in CSK buffer (prepared using 10 mM Pipes [piperazine-N,N'-bis(2-ethansulfonic)acid'], 100 mM KCl, 2.5 mM MgCl2, 300 mM sucrose, 1 mM EGTA, pH 6.8) was added to each well and incubated for 10 min at 22° to permeabilize the cells. The buffer was carefully aspirated and the wells were rinsed twice each time with 1 mL of PBS. HMGR activity was measured directly by adding 75 μL of PIB buffer (50 mM potassium phosphate, 1 mM Na2 EDTA, 10 mM dithiothreitol, pH 7.4) to each well and incubating the cells for 30 minutes at 37° as described above. […] HMG-Coenzyme A (15 DPM/pmol), pH 7.4. The assay mixture was incubated for 30 min at 37° and terminated by the addition of 70 μL of [^3 H]-mevalonic acid (35,000 DPM/assay), 0.15 mg/mL in 3 N HCl. The reaction was left to lactonize for an additional 30 min at 37° or overnight at room temperature.
Reaction products were separated by thin layer chromatography on silica gel G (obtained from Analtech, Newark, Del.) developed in an unsaturated environment with acetone:benzene (3:2, v:v). The band corresponding to mevalonolactone was identified by exposure to iodine vapor and was scraped into counting vials. The extent of conversion of starting substrate, HMG-CoA, to mevalonic acid was determined by liquid scintillation counting in Biofluor (obtained from New England Nuclear, Boston, Mass). Corrections for recovery and blank values were made for each sample. Protein determinations were made by the Bio-rad (Bio-Rad, Richmond, Cal.) dye binding assay according to the manufacturer's instruction using bovine serum albumin as standard. Cellular protein was solubilized from culture dishes by the addition of 20 μL of 16 N KOH and assayed directly for protein amount. Suppression values are expressed as the amount of compound required to suppress HMGR activity by 50% relative to that of the controls.

[2] = test system: cholesterol synthesis in CHO cells; test: De novo cholesterol synthesis: incorporation of radiolabeled acetate into cholesterol in CHO cells; assay type: cell-based, Chinese Hamster; settings: for Cholesterol Synthesis (DPMs): 17 hr + 2 hr with [14C]-acetic acid, Control 38855
Protocol: The ability of the compounds of Formula I to decrease de novo cholesterol synthesis was tested by measuring the incorporation of radiolabeled acetate into cholesterol synthesized in CHO cells. To conduct this experiment, CHO cells were plated at 0.3×10^6 cells per 15×60 mm tissue culture dish in 5 mL of McCoy's modified medium (Gibco Laboratories) containing 1% Cab-O-Sil delipidated FBS and incubated for 48 hours at 37° in a 5% CO2, 95% air environment. Test compounds in a 2.5% suspension of BSA (fatty acid free) in ethanol were then added to the cultures such that the final ethanol and BSA concentrations were 0.5% and […], respectively. Control cultures received ethanol and BSA alone. The cultures containing test compounds were then incubated at 37° in a 5% Co, 95% air environment for 17 hr before the addition of [1,2-^14 C]-acetic acid (57 μCi/mmol); obtained from New England Nuclear, Boston, Mass.) at a concentration of 10 μCi/mL for 2 additional hr.
The cells were harvested by washing the cells twice with 5 mL of cold PBS and scraping the cells into 1 mL PBS. The cell-containing solution was then transferred to 15 mL extraction tubes and treated with 1 mL of 90% methanol (containing 15% KOH, 100 μg/mL butylated hydroxytoluene). All samples were saponified for 1 hr at 80° and the non-saponifiable lipids then extracted with petroleum ether. The petroleum ether fractions were dried under nitrogen, resuspended in ethanol, counted and analyzed by reverse phase HPLC at 45° using an Ultrashpere Octyl column (from Altex Scientific Inc., Berkeley, Calif.) with a mobile phase of acetonitrile:methanol:water (44:44:12). The amount of cholesterol synthesis is measured by the amount of radiolabeled acetate incorporated into the cholesterol peak. The percent of cholesterol synthesis in the treated culture is calculated based upon the control culture.

[3] = target: T1, Lanosta-8,24-dien-3β-ol 14α-methyl demethylase (Rattus norvegicus, UniProt Q64654); test: Lanosta-8,24-dien-3β-ol 14α-Methyl Demethylase Inhibition Assay; assay type: biochemical; settings: for IC50: rat hepatic microsomal preparations, 100 μM lanost-8-en-3β-ol substrate, pH not given, test compounds 0 to 100 μM; for effect on lanosta-8,24-dien-3β-ol 14α-methyl demethylase activity: rat microsomal preparations
T1 construct: determined in rat depatic microsomal preparations; from tissue; host or cells: rat hepatic microsomes
T1 sequence (Q64654 1-503): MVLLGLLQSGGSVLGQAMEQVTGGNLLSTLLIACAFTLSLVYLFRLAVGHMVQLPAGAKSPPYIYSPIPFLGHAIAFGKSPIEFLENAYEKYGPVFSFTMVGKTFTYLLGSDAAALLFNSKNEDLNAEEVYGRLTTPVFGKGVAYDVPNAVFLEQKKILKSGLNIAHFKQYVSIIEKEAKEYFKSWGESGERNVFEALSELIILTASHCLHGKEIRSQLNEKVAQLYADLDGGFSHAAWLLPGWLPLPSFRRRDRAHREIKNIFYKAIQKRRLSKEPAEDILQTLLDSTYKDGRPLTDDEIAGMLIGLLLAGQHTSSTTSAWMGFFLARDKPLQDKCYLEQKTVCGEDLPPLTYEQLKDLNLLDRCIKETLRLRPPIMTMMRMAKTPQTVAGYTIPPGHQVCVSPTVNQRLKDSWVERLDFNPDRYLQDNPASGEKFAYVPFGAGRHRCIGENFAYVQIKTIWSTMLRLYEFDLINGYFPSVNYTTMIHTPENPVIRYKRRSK
Protocol: Lanosta-8,24-dien-3β-ol 14α-methyl demethylase activity was determined in rat depatic microsomal preparations as described in Trzaskos et al., J. Biol. Chem., 261, 16937-16942 (1986). Specifically, test compounds were added to assay mixtures as detergent suspensions with substrate employing 5 mg Triton WR-1339, 100 μM lanost-8-en-3β-ol substrate, and test compounds ranging from 0 to 100 μM. The inhibitor/substrate/detergent suspension was incubated with 2 mg microsomal protein for 5 min at 37° followed by a 10 min incubation initiated by the addition of cofactors required for the reaction. […] Inhibition values are expressed as the amount of compound required to inhibit lanosta-8,24-dien-3β-ol 14α-methyldemethylase activity by 50% relative to that of the controls.

[4] = Cricetulus griseus, 19 h, 10 μM, percent of control culture (100)

**Q.** Which results are given for CC(C)CCC[C@@H](C)[C@H]1CC[C@@]2(C(F)F)C3=CC[C@H]4C(C)(C)[C@@H](O)CC[C@]4(C)[C@H]3CC[C@]12C [Compound 9b, 32,32-difluoro-lanost-7-en-3β-ol]?
**A.** IC50 [1]: 1.4 µM; Cholesterol Synthesis (DPMs) ([2]; 10 μM): 10125 DPMs; activity at 10 µM [2, 4]: 26%; IC50 [3]: 37 µM

**Q.** Which results are given for CC(C)CCC[C@@H](C)[C@H]1CC[C@@]2(C)C3=C(CC[C@]12C)[C@@]1(C)CC[C@H](O)C(C)(C)[C@@H]1CC3 [lanost-8-en-3β-ol, reference compound]?
**A.** effect on measured HMGR activity [1]: without effect; effect on lanosta-8,24-dien-3β-ol 14α-methyl demethylase activity [3]: clearly served as substrates

**Q.** Which results are given for CC(C)CCC[C@@H](C)[C@H]1CC[C@@]2(C#N)C3=C(CC[C@]12C)[C@@]1(C)CC[C@H](O)C(C)(C)[C@@H]1CC3 [Compound 17a, 14α-cyano-4,4-dimethyl-5α-cholest-8-en-3β-ol]?
**A.** IC50 [1]: 1.4 µM; IC50 [3]: 11 µM

**Q.** CC(C)CCC[C@@H](C)[C@H]1C[C@H](O)[C@@]2(O)C3=C(CC[C@]12C)[C@@]1(C)CC[C@H](O)C[C@@H]1CC3 [Compound 35a, 5α-cholest-8-en-3β,14α,15α-triol] was tested. Which IC50 [1] did it give?
**A.** 0.4 µM

**Q.** And the IC50 [3]?
**A.** > 100 µM

**Q.** For CC(C)CCC[C@@H](C)[C@H]1CC[C@@]2(C(F)F)C3=C(CC[C@]12C)[C@@]1(C)CC[C@H](O)C(C)(C)[C@@H]1CC3 [Compound 9a, 32,32-difluoro-lanost-8-en-3β-ol], which IC50 [1] is on record?
**A.** 1.3 µM

**Q.** And the “Cholesterol Synthesis (DPMs)” value ([2]; 10 μM)?
**A.** 3615 DPMs

**Q.** And the activity at 10 µM [2, 4]?
**A.** 9%

**Q.** And the IC50 [3]?
**A.** 16 µM

**Q.** For C=CC(O)[C@@]12CC[C@H]([C@H](C)CCCC(C)C)[C@@]1(C)CCC1=C2CC[C@H]2C(C)(C)[C@@H](O)CC[C@]12C (single isomer, unassigned) [Compound 12a, 4,4-dimethyl-14α-(1'-hydroxy-2'-propenyl)-5α-cholest-8-en-3β-ol], which IC50 [1] is on record?
**A.** 0.13 µM

**Q.** And the “Cholesterol Synthesis (DPMs)” value ([2]; 1 μM)?
**A.** 636 DPMs

**Q.** What about the activity at 1 µM ([2]; Cricetulus griseus, 19 h, 1 μM, percent of control culture (100)) of the same compound?
**A.** 2%

**Q.** What about the IC50 [3] of the same compound?
**A.** 3.2 µM

**Q.** With CC(C)CCC[C@@H](C)[C@H]1C[C@H](F)[C@@]2(C)C3=CC[C@H]4C[C@@H](O)CC[C@]4(C)[C@H]3CC[C@]12C [Compound 27b, 15α-fluoro-14α-methyl-5α-cholest-7-en-3β-ol] as the compound, how does the IC50 [1] read?
**A.** 0.5 µM

**Q.** And the IC50 [3]?
**A.** > 100 µM

**Q.** Which results are given for CC(C)CCC[C@@H](C)[C@H]1CC[C@@]2(C=NO)C3=C(CC[C@]12C)[C@@]1(C)CC[C@H](O)C(C)(C)[C@@H]1CC3 [Compound 15a, lanost-8-en-32-aldoxime-3β-ol]?
**A.** IC50 [1]: 0.04 µM; IC50 [3]: 1.1 µM

**Q.** For C=CC(O)[C@@]12CC[C@H]([C@H](C)CCCC(C)C)[C@@]1(C)CCC1=C2CC[C@H]2C(C)(C)[C@@H](O)CC[C@]12C (single isomer, unassigned) [Compound 11a, 4,4-dimethyl-14α-(1'-hydroxy-2'-propenyl)-5α-cholest-8-en-3β-ol], which IC50 [1] is on record?
**A.** 0.06 µM

**Q.** What about the “Cholesterol Synthesis (DPMs)” value ([2]; 1 μM) of the same compound?
**A.** 360 DPMs

**Q.** How did the IC50 [1] turn out when CC(C)CCC[C@@H](C)[C@H]1C[C@H](F)[C@@]2(C)C3=CC[C@H]4C(C)(C)[C@@H](O)CC[C@]4(C)[C@H]3CC[C@]12C [Compound 26b, 15α-fluoro-lanost-7-en-3β-ol] was run?
**A.** 1 µM

**Q.** And the “Cholesterol Synthesis (DPMs)” value ([2]; 10 μM)?
**A.** 12279 DPMs

**Q.** What about the activity at 10 µM [2, 4] of the same compound?
**A.** 32%

**Q.** And the IC50 [3]?
**A.** > 100 µM

**Q.** Which results are given for CC(C)=CCC[C@@H](C)[C@H]1CC[C@@]2(C)C3=C(CC[C@]12C)[C@@]1(C)CC[C@H](O)C(C)(C)[C@@H]1CC3 [Compound 1, lanosta-8,24-dien-3β-ol, reference compound]?
**A.** effect on measured HMGR activity [1]: without effect; effect on lanosta-8,24-dien-3β-ol 14α-methyl demethylase activity [3]: clearly served as substrates

**Q.** CC(C)CCC[C@@H](C)[C@H]1CC[C@@]2(C=NO)C3=CC[C@H]4C(C)(C)[C@@H](O)CC[C@]4(C)[C@H]3CC[C@]12C [Compound 15b, lanost-7-en-32-aldoxime-3β-ol] was tested. Which IC50 [1] did it give?
**A.** 1.4 µM

**Q.** And the “Cholesterol Synthesis (DPMs)” value ([2]; 0.5 μM)?
**A.** 1534 DPMs

**Q.** What about the activity at 0.5 µM ([2]; Cricetulus griseus, 19 h, 0.5 μM, percent of control culture (100)) of the same compound?
**A.** 4%

**Q.** And the IC50 [3]?
**A.** 3 µM

**Q.** How did the “effect on measured HMGR activity” value [1] turn out when CC(C)CCC[C@@H](C)[C@H]1CC[C@H]2[C@@H]3CC=C4C[C@@H](O)CC[C@]4(C)[C@H]3CC[C@]12C [cholesterol] was run?
**A.** without effect

**Q.** What about the “effect on lanosta-8,24-dien-3β-ol 14α-methyl demethylase activity” value [3] of the same compound?
**A.** without effect
